Key:
[1] = test system: M2 versus M3 muscarinic receptor subtype; conditions: cited from earlier work
[2] = test system: M2 versus M1 muscarinic receptor subtype; conditions: cited from earlier work
[3] = test system: canine model, vagal stimulation; experiment: Canine arrhythmia model: ERP shortening and AF induced by vagal stimulation; type: in vivo; conditions: 20 microgram/kg single iv, 10-15 minutes after administration
Experimental: Canine Arrhythmia Model. […] Bioorg. Med. Chem. 2007, 15, 2312-2321), was evaluated for its ability to decrease effective refractory period and atrial fibrillation induced by vagal stimulation. Open chest electrophysiological mapping was performed in a canine model as previously described (Arora, R. et al. Am. J. Physiol. Heart Circ. Physiol. 2008, 294, […]-[…]). […] At baseline, effective refractory periods (ERPs) were obtained at multiple sites on each plaque in the absence and presence of vagal stimulation (VS). AF inducibility was also assessed under each of these conditions i.e. with and without VS. After baseline measurements had been made, methoctramine tetrahydrochloride hydrate (20 microgram/kg), dissolved in normal saline, was administered via a single iv injection. 10-15 minutes after methoctramine administration, ERPs and AF inducibility were reassessed in the absence and presence of VS.

[4] = test system: canines subjected to heart failure (HF); experiment: Vagal stimulation induced ERP shortening in canine heart failure model (rapid ventricular pacing); type: in vivo; conditions: left atrium, in presence of AChE inhibitor, without it 10±4
Experimental: Effective Refractory Periods. Effective refractory periods (ERPs) were obtained from 5 distributed sites from the PV, 6 sites from the PLA, and 4 sites from the LAA during each autonomic intervention. For each ERP, the pacing protocol consisted of a drive train (S1) of eight beats with a cycle length of 400 ms followed by an extrastimulus (S2). The S2 was decremented by 10 ms until loss of capture. […] Pacing was performed at an output current twice the threshold required for consistent capture of the tissue. The mean ERP was used as the representative ERP for each of the three sites as well as the entire left atrium.
Canines were subjected to heart failure (HF) by rapid ventricular pacing (240/min for 3 weeks). Vagal stimulation induced ERP shortening (VS-ΔERP)(ms) was assessed in the test canines as well as controls at multiple sites in the LA. VS-ΔERP was reassessed in the presence of an acetylcholineesterase (AChE) inhibitor (physostigmine). Explanted LA were subjected to 1) ELISA for acetylcholinesterase (AChE) activity, 2) AChE immunostaining and 3) radioactive M2 receptor binding assay.

Row | SMILES | selectivity for M2 versus M3 [1] | selectivity for M2 versus M1 [2] | Vagal induced AF [3] | Vagal induced ERP shortening ([3]; baseline 40 ms, p<0.01) | Vagal stimulation induced ERP shortening (VS-ΔERP) [4]
1 | CC(C)N(CC[C@H](c1ccccc1)c1cc(CO)ccc1O)C(C)C | 2 fold | – | – | – | –
2 | Cc1cccc(C(=O)N2CCC(N3CCC(Cc4ccc(S(=O)(=O)c5cccc(Cl)c5)cc4)CC3)CC2)c1N [Sch 211803] | 786 fold | 734 fold | – | – | –
3 | COc1ccncc1CN1CCC(N(CCCCCCCN2CC[C@@H](C(C(N)=O)(c3ccccc3)c3ccccc3)C2)C(C)C)CC1 [TD-6301] | 36 fold | 31 fold | – | – | –
4 | COc1ccccc1CNCCCCCCNCCCCCCCCNCCCCCCNCc1ccccc1OC [methoctramine] | 219 fold | 35 fold | markedly decreased | 10 ms | –
5 | CNC(=O)Oc1ccc2c(c1)[C@]1(C)CCN(C)[C@@H]1N2C [physostigmine] | – | – | – | – | 28 ± 4 ms
6 | Cc1ccc(O)c([C@H](CCN(C(C)C)C(C)C)c2ccccc2)c1 [tolterodine] | 1.7 fold | – | – | – | –

Source: patent US20190076417A1, “COMPOSITIONS AND METHODS FOR TREATING OR PREVENTING ATRIAL FIBRILLATION” (Northwestern University, priority 2010, published 2019)
